# Where two headings read alike, the source gives them in different places.
# Assays:
# B. cenocepacia J2315 = test: Broth microdilution MIC/MBC; type: cell-based
# Description: (§1) Broth microdilution tests were performed according to NCCLS guidelines. Serial two-fold dilutions of each imidazolium salt (from an original working solution which had been 0.22 μm sterile filtered) in Mueller-Hinton Broth (MHB) (100 μl) were prepared in 96-well micro-titre plates over the range 0.0000625-1% w/v. The inoculum to be tested was prepared by adjusting the turbidity of an actively overnight growing broth culture in MHB to an optical density at 550 nm equivalent to 1×10^8 CFU/ml. The suspension was further diluted to provide a final inoculum density of 2×10^5 CFU/ml in MHB as verified by total viable count. The inoculum to be tested (100 μl, 2×10^5 CFU ml^−1) was added to each well of the microdilution trays which were incubated aerobically for 24 h at 37° C. Positive and negative growth controls were included in every assay (6 replicates). After determining the MICs, minimum bactericidal concentrations (MBCs) were determined by spreading 20 μl of suspension from wells showing no growth onto MHA plates, which were then incubated for 24 h and examined for 99.9% killing.
# C. tropicalis NCTC 7393 = test: Broth microdilution MIC/MBC; type: cell-based; settings: for MIC: C. tropicalis NCTC 7393, 24 h at 37° C.
# Description: as §1
# E-MRSA 15 = test: Broth microdilution MIC/MBC; type: cell-based
# Description: as §1
# E. coli NCTC 8196 = test: Broth microdilution MIC/MBC; type: cell-based; settings: for MIC: E. coli NCTC 8196, 24 h at 37° C.
# Description: as §1
# K. aerogenes NCTC 7427 = test: Broth microdilution MIC/MBC; type: cell-based; settings: for MIC: K. aerogenes NCTC 7427, 24 h at 37° C.
# Description: as §1
# P. aeruginosa PA01 = test: Broth microdilution MIC/MBC; type: cell-based; settings: for MIC: P. aeruginosa PA01, 24 h at 37° C., read-out: MIC
# Description: as §1
# P. mirabilis NCTC 12442 = test: Broth microdilution MIC/MBC; type: cell-based; settings: for MIC: P. mirabilis NCTC 12442, 24 h at 37° C.
# Description: as §1
# S. aureus ATCC 29213 = test: Broth microdilution MIC/MBC; type: cell-based; settings: for MIC: S. aureus ATCC 29213, 24 h at 37° C.
# Description: as §1
# [1] = system: S. epidermidis ATCC 12228; test: Broth microdilution MIC/MBC; type: cell-based; settings: for MIC: S. epidermidis ATCC 12228, 24 h at 37° C.
# Description: as §1
# [2] = system: S. epidermidis ATCC 35984; test: Broth microdilution MIC/MBC; type: cell-based; settings: for MIC: S. epidermidis ATCC 35984, 24 h at 37° C.
# Description: as §1
# MRSA [3] = test: Broth microdilution MIC/MBC; type: cell-based, methicillin-resistant S. aureus; settings: for MIC: 24 h at 37° C.
# Description: as §1
# B. cereus = test: Broth microdilution MIC/MBC; type: cell-based; settings: 24 h at 37° C.
# Description: as §1
# MRSA [4] = test: Zone of inhibition on MRSA-seeded agar culture plates; type: cell-based, methicillin-resistant S. aureus; settings: 40 μL of ionic liquid applied to MRSA-seeded agar culture plates
# Description: As used herein, CyMIMCI, refers to 1-alkyl-3-methyl-imidazolium chloride ionic liquids, wherein the alkyl group is a straight chain alkyl group having y carbon atoms.
# [5] = Pseudomonas aeruginosa, PA01, 24 h
SMILES,MIC (C. tropicalis NCTC 7393),MIC (E. coli NCTC 8196),MIC (K. aerogenes NCTC 7427),MIC (P. mirabilis NCTC 12442),MIC (S. aureus ATCC 29213),MIC [1],MIC [2],MIC (B. cereus),further results
CCCCCCn1cc[n+](C)c1.[Cl-] [1-alkyl-3-methylimidazolium chlorides 6],>1644 µM,>1644 µM,>1644 µM,>1644 µM,>1644 µM,>1644 µM,>1644 µM,,"MBC (B. cenocepacia J2315; B. cenocepacia J2315, 99.9% killing): >1644 µM; MIC (B. cenocepacia J2315; B. cenocepacia J2315, 24 h at 37° C.): >1644 µM; MBC (C. tropicalis NCTC 7393; C. tropicalis NCTC 7393, 99.9% killing): >1644 µM; MBC (E-MRSA 15; E-MRSA 15, 99.9% killing): >1644 µM; MIC (E-MRSA 15; E-MRSA 15, 24 h at 37° C.): >1644 µM; MBC (E. coli NCTC 8196; E. coli NCTC 8196, 99.9% killing): >1644 µM; MBC (K. aerogenes NCTC 7427; K. aerogenes NCTC 7427, 99.9% killing): >1644 µM; MBC (P. aeruginosa PA01; P. aeruginosa PA01, 99.9% killing): >1644 µM; MIC (P. aeruginosa PA01): >1644 µM; MBC (P. mirabilis NCTC 12442; P. mirabilis NCTC 12442, 99.9% killing): >1644 µM; MBC (S. aureus ATCC 29213; S. aureus ATCC 29213, 99.9% killing): >1644 µM; MBC ([1]; S. epidermidis ATCC 12228, 99.9% killing): >1644 µM; MBC ([2]; S. epidermidis ATCC 35984, 99.9% killing): >1644 µM; MBC (MRSA [3]; 99.9% killing): >1644 µM; MIC (MRSA [3]): >1644 µM"
CCCCCCCC[n+]1ccn(C)c1.[Br][Ag-][Br] [1-alkyl-3-methylimidazolium-AgBr2 8],168.5 µM,136.69 µM,168.5 µM,168.5 µM,136.69 µM,68.35 µM,68.35 µM,168.5 µM,
CCCCCCCCCCn1cc[n+](C)c1.[Br][Ag-][Br] [1-alkyl-3-methylimidazolium-AgBr2 10],79.78 µM,32.68 µM,79.78 µM,79.78 µM,32.68 µM,32.68 µM,32.68 µM,79.78 µM,
CCCCCCCCCCCC[n+]1ccn(C)c1.[Br][Ag-][Br] [1-alkyl-3-methylimidazolium-AgBr2 12],75.85 µM,31.32 µM,34.40 µM,34.40 µM,15.66 µM,31.32 µM,15.66 µM,68.81 µM,
CCCCCCCCCCCCCC[n+]1ccn(C)c1.[Br][Ag-][Br] [1-alkyl-3-methylimidazolium-AgBr2 14],36.1 µM,15.03 µM,18.05 µM,18.05 µM,3.76 µM,15.03 µM,15.03 µM,72.2 µM,
CCCCCCCCCCCCCCCCn1cc[n+](C)c1.[Cl-] [C16MIMCl],,,,,,,,,Zone Of Inhibition Radius (MRSA [4]): 6 mm
CCCCCCCCCCCCCCCCCCn1cc[n+](C)c1.[Cl-] [C18MIMCl],,,,,,,,,Zone Of Inhibition Radius (MRSA [4]): 10 mm
"CCCCCCCCCCCCCC[n+]1ccn(C)c1C [IL1, 1,2-dimethyl-3-tetradecylimidazolium bromide, reference compound]",,,,,,,,,"MIC (B. cereus; Bacillus cereus): 372 µM; MIC (E. coli NCTC 8196; Escherichia coli, NCTC8196): 46.5 µM; MIC (P. aeruginosa PA01; [5]): 743 µM; MIC (P. mirabilis NCTC 12442; Proteus mirabilis, NCTC12442): 372 µM; MIC ([1]; Staphylococcus epidermidis, ATCC12228): 213 µM; MIC (MRSA [3]; Staphylococcus aureus): 186 µM"
"CCCCCCCCCCCCCC[N+](C)(C)CCO [IL2, N,N-dimethyl-N-(2-hydroxyethyl)-N-tetradecylammonium bromide, reference compound]",,,,,,,,,"MIC (B. cereus; Bacillus cereus): 13.3 µM; MIC (E. coli NCTC 8196; Escherichia coli, NCTC8196): 53.4 µM; MIC (P. aeruginosa PA01; [5]): 427 µM; MIC (P. mirabilis NCTC 12442; Proteus mirabilis, NCTC12442): 427 µM"

# The next lines start with results.
MIC (C. tropicalis NCTC 7393),MIC (E. coli NCTC 8196),MIC (K. aerogenes NCTC 7427),MIC (P. mirabilis NCTC 12442),MIC (S. aureus ATCC 29213),MIC [1],MIC [2],MIC (B. cereus),SMILES,further results
34.44 µM,28.91 µM,34.44 µM,34.44 µM,7.23 µM,3.61 µM,3.61 µM,68.89 µM,CCCCCCCCCCCCCCCCn1cc[n+](C)c1.[Br][Ag-][Br] [1-alkyl-3-methylimidazolium-AgBr2 16],
65.87 µM,27.83 µM,65.87 µM,65.87 µM,27.83 µM,13.91 µM,13.91 µM,65.87 µM,CCCCCCCCCCCCCCCCCC[n+]1ccn(C)c1.[Br][Ag-][Br] [1-alkyl-3-methylimidazolium-AgBr2 18],
941.6 µM,470 µM,941.6 µM,941.6 µM,470 µM,470 µM,470 µM,1883.21 µM,CCCCCCCC[n+]1ccn(C)c1.CCCCCCCC[n+]1ccn(C)c1.[Cl][Cu-2]([Cl])([Cl])[Cl] [(1-alkyl-3-methylimidazolium)2CuCl4 8],
218.3 µM,101.74 µM,218.3 µM,218.3 µM,101.74 µM,101.74 µM,101.74 µM,1746.4 µM,CCCCCCCCCC[n+]1ccn(C)c1.CCCCCCCCCC[n+]1ccn(C)c1.[Cl][Cu-2]([Cl])([Cl])[Cl] [(1-alkyl-3-methylimidazolium)2CuCl4 10],
50.88 µM,50.88 µM,50.88 µM,50.88 µM,50.88 µM,50.88 µM,50.88 µM,407 µM,CCCCCCCCCCCCn1cc[n+](C)c1.CCCCCCCCCCCCn1cc[n+](C)c1.[Cl][Cu-2]([Cl])([Cl])[Cl] [(1-alkyl-3-methylimidazolium)2CuCl4 12],
20.01 µM,40.02 µM,40.02 µM,20.01 µM,40.02 µM,20.01 µM,40.02 µM,80.06 µM,CCCCCCCCCCCCCCn1cc[n+](C)c1.CCCCCCCCCCCCCCn1cc[n+](C)c1.[Cl][Cu-2]([Cl])([Cl])[Cl] [(1-alkyl-3-methylimidazolium)2CuCl4 14],
44.81 µM,44.81 µM,44.81 µM,44.81 µM,22.41 µM,44.81 µM,22.41 µM,89.63 µM,CCCCCCCCCCCCCCCCn1cc[n+](C)c1.CCCCCCCCCCCCCCCCn1cc[n+](C)c1.[Cl][Cu-2]([Cl])([Cl])[Cl] [(1-alkyl-3-methylimidazolium)2CuCl4 16],
84.57 µM,131.98 µM,338.29 µM,338.29 µM,131.98 µM,131.98 µM,131.98 µM,169.15 µM,CCCCCCCCCCCCCCCCCCn1cc[n+](C)c1.CCCCCCCCCCCCCCCCCCn1cc[n+](C)c1.[Cl][Cu-2]([Cl])([Cl])[Cl] [(1-alkyl-3-methylimidazolium)2CuCl4 18],
